The values below come from ChEMBL document CHEMBL3352773, “Synthesis and evaluation of the 2,4-diaminoquinazoline series as anti-tubercular agents” (Bioorg Med Chem, 2014).

Molecules are shown by their SMILES. Converted amounts (≈) assume the structure as drawn. The source made the active and inactive calls. The calls are words filed in the database; no cut-off is given here.

The subject of data set [1] is Mycobacterium tuberculosis. Kind of data set: Antituberculosis activity against Mycobacterium tuberculosis H37Rv assessed as complete growth inhibition at 20 uM after 5 days. The format is functional. As to conditions: 120 h.
For data set [2], the system named is Rattus norvegicus. Kind of data set: Volume of distribution at steady state in Sprague-Dawley rat at 10 mg/kg, po after 24 hrs. The format is ADME, organism-based. Also noted: dose 10 mg/kg, route oral. To be noted: in vivo.
Data set [3] relates to Rattus norvegicus. Kind of data set: AUC in Sprague-Dawley rat at 10 mg/kg, po after 24 hrs. To be noted: in vivo. Details: time < 24 hr, dose 10 mg/kg, route oral. The data set is classed as ADME, organism-based, Plasma.
Data set [4] is described as follows: Oral bioavailability in Sprague-Dawley rat at 10 mg/kg after 24 hrs. The format is ADME, organism-based. As to conditions: in vivo.
The test system of data set [5] is Mycobacterium tuberculosis. Kind of data set: Antituberculosis activity against Mycobacterium tuberculosis H37Rv assessed as complete growth inhibition after 5 days using liquid media. The format is functional. As to conditions: 120 h.
Data set [6] has as its system Mycobacterium tuberculosis. Kind of data set: Antituberculosis activity against Mycobacterium tuberculosis H37Rv assessed as complete growth inhibition after 5 days using solid media by serial proportion method. The format is functional. As to conditions: 120 h.
The subject of data set [7] is Mycobacterium tuberculosis. Kind of data set: Antituberculosis activity against Mycobacterium tuberculosis H37Rv assessed as complete growth inhibition after 5 days. The format is functional. As to conditions: 120 h.
Data set [8] relates to Mycobacterium tuberculosis. Kind of data set: Bactericidal activity against Mycobacterium tuberculosis H37Rv under aerobic and replicating condition assessed as reduction in viability at 124 uM measured over 7 days by time kill kinetic study relative to control. The data set is classed as functional.
For data set [9], the system named is Mycobacterium tuberculosis. Kind of data set: Bactericidal activity against Mycobacterium tuberculosis H37Rv under non-replicating condition assessed as reduction in viability at 124 uM measured over 7 days by time kill kinetic study relative to control. The data set is classed as functional.
The subject of data set [10] is Mycobacterium tuberculosis. Kind of data set: Antituberculosis activity against Mycobacterium tuberculosis H37Rv assessed as complete growth inhibition at 56 uM in presence of hemin. The format is functional, organism-based.
The subject of data set [11] is Mycobacterium tuberculosis. Kind of data set: Antituberculosis activity against Mycobacterium tuberculosis H37Rv assessed as complete growth inhibition at 56 uM in absence of hemin. The format is functional, organism-based.
Data set [12] relates to Mycobacterium tuberculosis. Kind of data set: Antituberculosis activity against Mycobacterium tuberculosis H37Rv grown in liquid media using glucose as carbon source assessed as growth inhibition. The data set is classed as functional.
The subject of data set [13] is Mycobacterium tuberculosis. Kind of data set: Antituberculosis activity against Mycobacterium tuberculosis H37Rv grown in liquid media using palmitate as carbon source assessed as growth inhibition. The format is functional.
Data set [14] deals with Mycobacterium tuberculosis. Kind of data set: Antituberculosis activity against Mycobacterium tuberculosis H37Rv grown in solid media assessed as growth inhibition by serial proportion method. The data set is classed as functional.

With `Fc1ccc(Cn2cnc3c(N4CCCCC4)nc4ccccc4c32)cc1`, the inhibition (as a rule, how much of the control response was suppressed) at 20 µM in data set [1] was 98%. Moreover, the Vdss in the data set with Rattus norvegicus [2] was 14.2 L/kg. Besides, in the data set on Rattus norvegicus [3], the AUC (commonly concentration integrated over time) is 0.0274 µg·h/mL. Besides, in data set [4], the bioavailability (as a rule, the share of a dose that reaches the circulation, judged against a reference dose that is usually intravenous) was determined as 3.4%. Further, the MIC99 (commonly the lowest concentration that inhibits either 99% of growth or 99% of the strains tested, depending on the study) in data set [5] was found to be 13.8 µM (≈ 4.97 µg/mL); in data set [6] it was 27.7 µM (≈ 9.98 µg/mL).

`FC(F)(F)c1ccc(CNc2nc(N3CCCCC3)nc3ccccc23)cc1`: the MIC99 turned out to be 6.6 µM (≈ 2.55 µg/mL) in data set [7], 28 µM (≈ 10.8 µg/mL) in data set [12], 28 µM (≈ 10.8 µg/mL) in data set [13] and 16 µM (≈ 6.18 µg/mL) in data set [14]. In data set [1], the inhibition at 20 µM was found to be 99%. The “fold change (FC)” value in data set [8] was found to be 4; in data set [9] it was 3. Moreover, the result in [10] and in [11] was Active.
